Reference: PMC10179080, “In Vivo and In Vitro Characterization of Close Analogs of Compound KA-11, a New Antiseizure Drug Candidate” (International Journal of Molecular Sciences, 2023)

Experiments:
[1] = target: GABAA (α1,β2,γ2) (agonist radioligand) (Homo sapiens, UniProt P14867+P47870); assay: Radioligand binding, GABAA
Chimney test = settings: male, albino Swiss, mouse, in vivo, ip, mice
Description: (§1) The experiments were conducted on adult male albino Swiss mice weighing 22–26 g. The animals were kept in colony cages under standardized laboratory conditions: natural light–dark cycle 12/12 h, temperature 20–24 °C, air humidity 45–65% and free access to tap water and food (chow pellets). After 7 days of adaptation to laboratory conditions, the animals were randomly assigned to experimental groups consisting of 8 mice. The experimental procedures described herein were approved by the Local Ethics Committee in Lublin, Poland (approval numbers: 71/2020 and 13/2021), and were conducted in accordance with EU Directive 2010/63/EU for animal experiments. All efforts were made to minimize animal suffering and to use only the number of animals necessary to produce reliable scientific data according to the 3Rs rule.
The chimney test of Boissier et al. was used to quantify the acute adverse-effect potential of KA-228 and KA-232 on motor performance in mice. […]
The ED50 or TD50 values for tested substances in the acute animal models of seizures were calculated using the computer log-probit analysis. Subsequently, the ED50 and TD50 values (±SEM) were statistically analyzed using one-way analysis of variance (ANOVA) followed by the post hoc Dunnett’s test for multiple comparisons. […] The results obtained from the acute ivPTZ test and grip strength test were evaluated by a Student’s t test. […]

neuroblastoma SH-SY5Y = assay: Neurotoxicity, SH-SY5Y cell viability; format: cell-based, human
Excerpt: (§2) The assays and protocols used for evaluating the KA-232 ADME-Tox parameters were similar to those described previously for compound KA-11 [6].
(§3) Figure 9 The effect of KA-232 and the reference drug ketoconazole (KE) on CYP3A4 activity (A). The effect of KA-232 and the reference drug quinidine (QD) on CYP2D6 activity (B). The effect of KA-232 and the reference cytostatic drug doxorubicin (DX) on the HepG2 cell line (C) and the SH-SY5Y cell line (D) viability. Statistical significance (* p < 0.05, **** p < 0.0001) was analyzed by Graph Pad Prism 8 software using one-way ANOVA and Bonferroni’s Multiple Comparison Post Test.

CYP2D6 = target: T1, CYP2D6 (Homo sapiens, UniProt P10635); assay: CYP2D6 P450-Glo assay; format: in vitro ADME
T1 construct: purchased Promega, Madison, WI, USA
T1 sequence (P10635 whole entry): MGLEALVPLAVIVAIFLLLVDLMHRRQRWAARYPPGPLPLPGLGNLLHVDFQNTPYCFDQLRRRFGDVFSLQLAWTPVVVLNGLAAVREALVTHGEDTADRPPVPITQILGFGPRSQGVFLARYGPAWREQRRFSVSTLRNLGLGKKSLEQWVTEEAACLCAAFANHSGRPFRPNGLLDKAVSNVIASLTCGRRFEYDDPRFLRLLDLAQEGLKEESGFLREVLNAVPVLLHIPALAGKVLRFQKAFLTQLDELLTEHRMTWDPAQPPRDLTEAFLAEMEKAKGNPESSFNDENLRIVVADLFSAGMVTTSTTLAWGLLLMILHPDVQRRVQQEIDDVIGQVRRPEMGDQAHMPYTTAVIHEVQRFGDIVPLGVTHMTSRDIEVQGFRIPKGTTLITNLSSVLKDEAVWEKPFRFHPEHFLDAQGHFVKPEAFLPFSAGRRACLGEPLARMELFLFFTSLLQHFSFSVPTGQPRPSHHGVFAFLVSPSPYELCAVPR
Excerpt: as §2, §3

in vitro = settings: PAMPA
Description: Pre-coated PAMPA Plate System Gentest™ was purchased from Corning (Tewksbury, MA, USA). […] The luminescent signal and the absorbances were measured by using a microplate reader EnSpire PerkinElmer (Waltham, MA, USA). The LC/MS/MS analyses used in PAMPA and metabolic stability assays were obtained on Waters ACQUITY™ TQD system (Waters, Milford, CT, USA).

hepatoma HepG2 = assay: Hepatotoxicity, HepG2 cell viability; format: cell-based, human
Excerpt: as §2, §3

[2] = target: T2, Calcium Cav2.2 channel (antagonist radioligand) (Rattus norvegicus, UniProt Q02294); assay: Radioligand binding, Cav2.2 channel
T2 construct: rat cerebral cortex; tissue Eurofins Laboratories; host or cells: rat cerebral cortex
T2 sequence (Q02294 whole entry): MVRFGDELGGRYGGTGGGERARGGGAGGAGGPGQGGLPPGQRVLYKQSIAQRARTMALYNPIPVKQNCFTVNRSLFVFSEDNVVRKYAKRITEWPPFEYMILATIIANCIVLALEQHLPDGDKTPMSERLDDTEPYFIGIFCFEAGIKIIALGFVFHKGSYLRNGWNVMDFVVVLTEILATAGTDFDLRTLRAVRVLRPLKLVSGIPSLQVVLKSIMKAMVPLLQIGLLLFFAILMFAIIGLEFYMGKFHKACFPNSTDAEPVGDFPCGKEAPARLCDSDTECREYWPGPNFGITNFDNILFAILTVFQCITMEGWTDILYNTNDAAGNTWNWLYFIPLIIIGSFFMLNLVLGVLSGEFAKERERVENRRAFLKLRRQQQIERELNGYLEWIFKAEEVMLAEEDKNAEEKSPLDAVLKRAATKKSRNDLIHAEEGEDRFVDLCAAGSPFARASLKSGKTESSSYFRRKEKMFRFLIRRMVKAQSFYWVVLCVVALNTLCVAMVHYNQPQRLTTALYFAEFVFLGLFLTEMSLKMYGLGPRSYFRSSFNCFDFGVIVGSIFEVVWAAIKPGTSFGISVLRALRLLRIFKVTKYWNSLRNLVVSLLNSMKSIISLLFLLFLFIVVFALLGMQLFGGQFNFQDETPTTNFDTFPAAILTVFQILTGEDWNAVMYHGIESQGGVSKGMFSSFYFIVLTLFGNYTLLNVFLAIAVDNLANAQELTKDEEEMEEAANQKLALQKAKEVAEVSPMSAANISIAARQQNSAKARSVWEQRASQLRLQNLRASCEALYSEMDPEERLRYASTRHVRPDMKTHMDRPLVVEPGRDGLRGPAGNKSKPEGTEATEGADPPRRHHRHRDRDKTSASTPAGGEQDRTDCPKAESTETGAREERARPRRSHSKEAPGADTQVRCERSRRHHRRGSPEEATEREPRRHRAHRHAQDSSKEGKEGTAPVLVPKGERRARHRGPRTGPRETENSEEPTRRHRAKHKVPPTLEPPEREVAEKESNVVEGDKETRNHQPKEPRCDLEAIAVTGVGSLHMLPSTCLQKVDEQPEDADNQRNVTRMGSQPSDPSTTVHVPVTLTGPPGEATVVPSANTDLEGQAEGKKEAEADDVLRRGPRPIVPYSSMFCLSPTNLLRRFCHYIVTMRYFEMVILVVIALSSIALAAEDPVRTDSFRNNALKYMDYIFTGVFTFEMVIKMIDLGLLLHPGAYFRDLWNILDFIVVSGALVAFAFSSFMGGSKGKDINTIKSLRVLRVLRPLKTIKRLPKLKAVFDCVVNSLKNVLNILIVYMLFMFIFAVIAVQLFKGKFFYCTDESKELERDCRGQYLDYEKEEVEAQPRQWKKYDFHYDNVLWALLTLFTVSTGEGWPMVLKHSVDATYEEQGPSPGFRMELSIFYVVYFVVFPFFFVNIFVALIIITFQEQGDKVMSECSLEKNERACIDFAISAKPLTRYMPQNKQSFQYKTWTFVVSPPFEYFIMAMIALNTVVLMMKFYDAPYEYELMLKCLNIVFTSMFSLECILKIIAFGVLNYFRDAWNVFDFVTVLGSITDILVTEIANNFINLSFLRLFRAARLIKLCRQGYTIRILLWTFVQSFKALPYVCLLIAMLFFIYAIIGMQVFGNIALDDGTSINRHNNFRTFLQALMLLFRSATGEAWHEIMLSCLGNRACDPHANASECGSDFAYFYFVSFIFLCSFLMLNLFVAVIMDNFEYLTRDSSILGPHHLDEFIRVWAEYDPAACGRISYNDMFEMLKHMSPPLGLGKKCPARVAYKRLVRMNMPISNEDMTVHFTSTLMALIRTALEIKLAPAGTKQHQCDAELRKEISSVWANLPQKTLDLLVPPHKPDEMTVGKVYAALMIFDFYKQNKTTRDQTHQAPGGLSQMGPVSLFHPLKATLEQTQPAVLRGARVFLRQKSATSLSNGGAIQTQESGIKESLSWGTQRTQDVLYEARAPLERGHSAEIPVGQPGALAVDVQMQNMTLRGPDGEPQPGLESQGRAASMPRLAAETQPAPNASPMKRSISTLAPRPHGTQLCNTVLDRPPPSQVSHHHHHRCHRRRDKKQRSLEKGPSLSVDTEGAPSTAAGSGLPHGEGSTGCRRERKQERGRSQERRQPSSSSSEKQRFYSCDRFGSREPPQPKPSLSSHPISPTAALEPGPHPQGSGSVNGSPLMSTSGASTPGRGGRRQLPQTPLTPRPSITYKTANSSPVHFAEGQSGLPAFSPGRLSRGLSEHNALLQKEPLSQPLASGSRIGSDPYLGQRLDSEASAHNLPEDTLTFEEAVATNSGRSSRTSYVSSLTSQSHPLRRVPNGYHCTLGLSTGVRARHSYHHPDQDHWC
Description: (§4) Dysfunction of both sodium and calcium ion channels is known to be one of the crucial reasons behind the pathogenesis of seizures. Consequently, these ion channels are molecular targets for several clinically important ASDs such as lacosamide, lamotrigine, carbamazepine, oxcarbazepine and compounds currently under preclinical and clinical studies. Thus, for KA-228 and KA-232, we tested herein their binding profile toward the aforementioned ion channels at concentrations of 10 and 100 µM (Table 3). […] Apart from in vitro studies focused on explaining the mechanism of action, KA-232 was additionally tested for its interaction with the potassium channel (hERG) which is recognized as one of the most important ‘off-targets’ responsible for harmful arrhythmogenic activity. Thus, the interaction of potential drug candidates with hERG must be excluded at an early stage of development.
(§5) Binding studies were carried out commercially in Eurofins Laboratories (Poitiers, France or New Taipei City, Taiwan).

CYP3A4 = target: T3, CYP3A4 (Homo sapiens, UniProt P08684); assay: CYP3A4 P450-Glo assay; format: in vitro ADME; settings: 10 µM
T3 construct: purchased Promega, Madison, WI, USA
Excerpt: as §2, §3

[3] = Stability in PBS buffer during PAMPA incubation; format: physicochemical; settings: 5 h incubation in PAMPA plate, PBS pH 7.4, RT
[4] = target: T4, TRPV1 (VR1) (antagonist effect) (Homo sapiens, UniProt Q8NER1); assay: TRPV1 antagonist functional assay (intracellular Ca2+, CHO cells); format: cell-based; settings: 10 µM
T4 construct: host or cells: CHO cells
T4 sequence (Q8NER1 whole entry): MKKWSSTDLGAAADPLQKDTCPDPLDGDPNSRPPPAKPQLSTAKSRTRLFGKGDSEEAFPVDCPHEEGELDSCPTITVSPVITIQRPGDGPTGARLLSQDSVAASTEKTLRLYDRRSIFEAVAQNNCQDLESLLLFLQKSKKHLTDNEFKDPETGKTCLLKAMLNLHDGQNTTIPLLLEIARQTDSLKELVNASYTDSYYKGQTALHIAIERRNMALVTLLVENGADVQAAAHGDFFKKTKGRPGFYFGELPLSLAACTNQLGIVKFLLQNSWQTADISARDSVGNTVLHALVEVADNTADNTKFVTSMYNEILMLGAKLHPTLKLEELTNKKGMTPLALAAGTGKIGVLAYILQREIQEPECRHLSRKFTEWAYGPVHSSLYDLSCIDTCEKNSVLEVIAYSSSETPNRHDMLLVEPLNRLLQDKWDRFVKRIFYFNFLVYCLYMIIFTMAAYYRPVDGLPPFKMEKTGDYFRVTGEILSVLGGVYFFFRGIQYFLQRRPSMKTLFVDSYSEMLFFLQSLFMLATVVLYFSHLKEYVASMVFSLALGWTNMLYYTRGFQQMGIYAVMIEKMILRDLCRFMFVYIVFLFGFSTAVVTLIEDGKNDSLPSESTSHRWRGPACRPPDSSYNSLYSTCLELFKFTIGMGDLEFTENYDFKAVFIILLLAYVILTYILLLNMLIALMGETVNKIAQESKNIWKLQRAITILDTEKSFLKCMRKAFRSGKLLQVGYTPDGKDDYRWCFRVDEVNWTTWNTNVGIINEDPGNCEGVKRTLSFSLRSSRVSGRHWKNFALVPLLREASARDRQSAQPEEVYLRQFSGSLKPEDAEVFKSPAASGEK
Description: as §5

[5] = system: Calcium Cav1.2 channels (diltiazem site, antagonist radioligand); assay: Radioligand binding, Cav1.2 diltiazem site; set-up: species or system rat
Description: as §4, §5

[6] = system: Calcium Cav1.2 channel (verapamil site, antagonist radioligand); assay: Radioligand binding, Cav1.2 verapamil site; set-up: species or system rat; settings: 10 µM
Description: as §4, §5

[7] = system: PTZ-induced clonic seizures in mice; assay: scPTZ-induced convulsions; format: in vivo; settings: i.p.
Description: as §1
All substances (except PTZ and tetracaine hydrochloride dissolved in water for injections) were suspended in a 1% solution of Tween 80 (Sigma-Aldrich, Saint Louis, MO, USA) in water for injections (Baxter, Warszawa, Poland) or 0.9% NaCl. All drugs were injected intraperitoneally (i.p.) 30 min before all seizure models with 1 mL syringes as a single injection, in a volume of 10 mL/kg. The pretreatment time (30 min) before testing for KA-228 and KA-232 was chosen based on the time to peak of maximum anticonvulsant activity of KA-11 from our previous studies.
The PTZ-induced clonic seizures in mice were determined after sc administration of PTZ at a dose of 100 mg/kg. The animals were administered with increasing doses of KA-228 and KA-232, and the anticonvulsant activity of each drug was evaluated as the ED50 value. This experimental procedure has been described in detail in our previous studies.
The ED50 or TD50 values for tested substances in the acute animal models of seizures were calculated using the computer log-probit analysis. Subsequently, the ED50 and TD50 values (±SEM) were statistically analyzed using one-way analysis of variance (ANOVA) followed by the post hoc Dunnett’s test for multiple comparisons. Differences among values were considered statistically significant if p < 0.05. GraphPad Prism version 8 for Windows (GraphPad Software, San Diego, CA, USA) was used as a statistical software program. The results obtained from the acute ivPTZ test and grip strength test were evaluated by a Student’s t test. Fisher’s exact probability test was used to analyze protection from tonic forelimb and hindlimb extension in the ivPTZ test.

Na^+ channel (site 2) = assay: Radioligand binding, Na+ channel (site 2); set-up: species or system rat; settings: 10 µM
Description: as §4, §5

[8] = read-out: % Inhibition of Control Specific Binding

Chain of GABAA (α1,β2,γ2) (agonist radioligand) (P14867 28-456): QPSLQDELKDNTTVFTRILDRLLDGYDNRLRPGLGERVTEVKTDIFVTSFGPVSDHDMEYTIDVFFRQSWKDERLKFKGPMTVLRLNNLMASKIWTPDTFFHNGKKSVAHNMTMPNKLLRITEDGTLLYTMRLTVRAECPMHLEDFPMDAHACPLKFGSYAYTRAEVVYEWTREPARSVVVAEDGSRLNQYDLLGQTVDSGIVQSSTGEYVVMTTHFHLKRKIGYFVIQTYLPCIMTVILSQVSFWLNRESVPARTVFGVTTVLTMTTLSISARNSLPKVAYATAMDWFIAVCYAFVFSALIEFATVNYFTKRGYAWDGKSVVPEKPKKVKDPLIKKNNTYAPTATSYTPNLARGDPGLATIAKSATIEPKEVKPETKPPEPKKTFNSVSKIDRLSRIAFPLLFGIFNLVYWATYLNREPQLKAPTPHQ
Chain of GABAA (α1,β2,γ2) (agonist radioligand) (P47870 25-512 limits assumed): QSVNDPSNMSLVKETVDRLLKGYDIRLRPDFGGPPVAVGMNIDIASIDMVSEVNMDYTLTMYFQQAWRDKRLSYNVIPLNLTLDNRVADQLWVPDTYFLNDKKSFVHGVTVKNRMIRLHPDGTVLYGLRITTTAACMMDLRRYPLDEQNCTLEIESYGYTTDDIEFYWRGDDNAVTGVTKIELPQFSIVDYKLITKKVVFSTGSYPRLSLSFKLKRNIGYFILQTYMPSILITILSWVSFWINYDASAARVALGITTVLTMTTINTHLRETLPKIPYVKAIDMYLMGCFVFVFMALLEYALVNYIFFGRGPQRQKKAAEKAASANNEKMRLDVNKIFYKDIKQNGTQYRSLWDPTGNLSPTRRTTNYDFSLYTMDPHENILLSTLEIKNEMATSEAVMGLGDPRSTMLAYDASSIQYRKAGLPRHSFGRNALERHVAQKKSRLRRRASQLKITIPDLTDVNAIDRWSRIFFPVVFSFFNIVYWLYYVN
Chain of GABAA (α1,β2,γ2) (agonist radioligand) (P18507 40-475 partner): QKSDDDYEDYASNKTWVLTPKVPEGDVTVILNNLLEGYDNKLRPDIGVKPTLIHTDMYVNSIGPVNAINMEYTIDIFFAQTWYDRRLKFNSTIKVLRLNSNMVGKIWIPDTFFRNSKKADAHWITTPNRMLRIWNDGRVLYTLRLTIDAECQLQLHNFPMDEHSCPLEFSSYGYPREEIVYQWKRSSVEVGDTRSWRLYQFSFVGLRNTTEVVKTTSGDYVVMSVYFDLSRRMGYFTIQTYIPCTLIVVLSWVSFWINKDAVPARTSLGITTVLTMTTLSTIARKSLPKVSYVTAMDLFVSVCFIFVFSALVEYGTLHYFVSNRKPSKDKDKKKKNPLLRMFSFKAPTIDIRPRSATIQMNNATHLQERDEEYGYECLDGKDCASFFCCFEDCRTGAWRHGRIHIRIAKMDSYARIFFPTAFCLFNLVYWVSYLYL

CC(C(=O)N1CCN(c2cccc(C(F)(F)F)c2)CC1)N1C(=O)CC(N(C)C)C1=O.Cl (stereo not shown) [KA-232, 3-(Dimethylamino)-1-(1-oxo-1-(4-(3-(trifluoromethyl)phenyl)piperazin-1-yl)propan-2-yl)pyrrolidine-2,5-dione hydrochloride]
% Inhibition of Control Specific Binding ([1]; 10 µM): did not interact | inhibition at 10 µM [1, 8]: -6.7% | TD50 at 30 min (Chimney test): 163 ± 31.2 mg/kg | SH-SY5Y viability (% of control ± SD) (neuroblastoma SH-SY5Y; 10 µM): 99.44 ± 5.89 % of control | neurotoxic effect on SH-SY5Y cell line (neuroblastoma SH-SY5Y; all used doses): no neurotoxic effect | CYP2D6 activity (% of control ± SD) (CYP2D6; 10 µM): 100.96 ± 2.57 % of control | effect on CYP2D6 activity (CYP2D6; at 0.1 and 1 µM): slight induction | Papp at 5 h (in vitro): 10.2 ± 1.65 ×10⁻⁶ cm/s | HepG2 viability (% of control ± SD) (hepatoma HepG2; 10 µM): 89.44 ± 10.22 % of control | HepG2 cell viability (hepatoma HepG2; 100 µM): approximately 78 % of control | % Inhibition of Control Specific Binding ([2]; 10 µM): did not interact | inhibition at 10 µM [2, 8]: 10.6% | CYP3A4 activity (% of control ± SD) (CYP3A4): 86.77 ± 5.71 % of control | stability in physiological buffer [3]: some products of KA-232 degradation at the pyrrolidine-2,5-dione moiety were observed | % Inhibition of control specific binding (functional, antagonist effect) [4]: did not inhibit | inhibition at 10 µM ([4]; CHO, read-out: % Inhibition of control specific binding (functional, antagonist effect)): 10.5% | % Inhibition of Control Specific Binding ([5]; 10 µM): −1.8% | % Inhibition of Control Specific Binding ([5]; 100 µM): 17.5% | % Inhibition of Control Specific Binding [6]: −2.8 (10) % | ED50 ([7]; Mus musculus, scPTZ 100 mg/kg, 30 min before test, read-out: ED50 PTZ ± SD): 59.3 ± 78.2 mg/kg | TI (TD50/ED50), PTZ ([7]; scPTZ): 2.75 | % Inhibition of Control Specific Binding (Na^+ channel (site 2)): 3.8%
